16 compounds from PubChem BioAssay (NCI) can be followed below.

Where “and” joins values, the source holds several entries; their conditions need not be identical. Equal entries are not always repeated.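 Interpolation was linear, between the two tested concentrations surrounding the appropriate level; five concentrations were tested over 48 hours in 96-well plates. At the GI50, growth is halved. TGI is the concentration that stops growth completely.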

The subject of one assay is 786-0 renal. Briefly: NCI-60 cell line screen, 48 h.
Turning to `O=C(c1cccs1)C1NO[N+]([O-])=C1c1cccs1` (stereo not drawn), the GI50 is 2.01 µM and the TGI worked out at 3.88 µM.
`COc1ccc(C2=C(N3CCc4ccccc43)C(=O)NC2=O)cc1`: the GI50 was greater than 25 µM and the TGI is greater than 25 µM.
Turning to `Cc1cc2c(cc1Cl)S/C(=C/C(=O)O)C(Nc1cccc3nsnc13)=NS2(=O)=O`, the GI50 is 36.5 µM and the TGI is greater than 62.2 µM.
Turning to `COc1ccc(F)c(F)c1C(=O)c1cnc(NC2CCN(S(C)(=O)=O)CC2)nc1N`, the GI50 is 0.666 µM and 0.388 µM; the TGI was greater than 27 µM.
Regarding `Nc1cc(-c2ccc(Cl)cc2)nn1-c1nnc(/C=C/c2ccco2)c(=O)[nH]1`, the GI50 was 5.04 µM and the TGI is 23.9 µM.
`Cc1c(C)c(CC(=O)N2CC2)c(C)c(C)c1CC(=O)N1CC1` showed a TGI greater than 65.9 µM.
`O=C1c2ccccc2-c2c1c1c(NCCCO)nc3ccccc3c1n2Cc1ccccc1`: the GI50 was 21.3 µM and the TGI was found to be 43.7 µM.
In turn, `CCCCCCCCCCCCCCCCCCOCC(COCCOCC[N+]1(CCCCCC(=O)[O-])CCCC1)Oc1ncccn1` (stereo not drawn) yielded a TGI of 22.2 µM.
Consider `CCOc1ccc(Nc2c3ccccc3nc3ccccc23)cc1`, for which the GI50 was 0.666 µM and 0.34 µM; the TGI was 6.67 µM and 2.61 µM.
For `CCNCCNc1cc(-c2ccc(C#N)cc2)c(C#N)c2nc3ccccc3n12`, the GI50 is 2.2 µM and the TGI stood at 7.46 µM.
Regarding `[2H]c1nc(=Nc2cc(NC(=O)C=C)c(N(C)CCN(C)C)cc2OC)[nH]c(-c2cn(C([2H])([2H])[2H])c3ccccc23)c1[2H]`, the GI50 is 1.34 µM and the TGI was 2.68 µM.
With `COc1cc2nc(-c3ccc(C(F)(F)F)cc3)cc(OCCCN3CCCC3)c2cc1OC`, the GI50 is 1.88 µM and the TGI stood at 6.03 µM.
The like results for `COc1ccc(C(=O)c2nc3ccccc3n2CC(=O)c2ccc(Cl)cc2)cc1` were, in that order, 3.88 µM and greater than 100 µM.
As for `O=C(NCCN1CCNCC1)c1ccc(Nc2nc3ccccc3c3occc23)cc1`, the GI50 is 8.06 µM and the TGI was 21.6 µM.
On to `OCc1ccc(N2CCOCC2)cc1Cl`, for which the GI50 was greater than 100 µM and the TGI was greater than 100 µM.

In a further assay the test system is HOP-62 NSCLC. Briefly: NCI-60 cell line screen, 48 h.
Consider `Fc1ccc2nc(-c3cc(-c4ccc5c(c4)OCO5)n[nH]3)[nH]c2c1`, for which the GI50 is 5.44 µM and the TGI is greater than 43.4 µM.
With `O=C(c1cccs1)C1NO[N+]([O-])=C1c1cccs1` (stereo not drawn), the GI50 was 4.77 µM and the TGI amounted to 11.4 µM.
Regarding `COc1ccc(C2=C(N3CCc4ccccc43)C(=O)NC2=O)cc1`, the GI50 was greater than 25 µM and the TGI is greater than 25 µM.
Regarding `Cc1cc2c(cc1Cl)S/C(=C/C(=O)O)C(Nc1cccc3nsnc13)=NS2(=O)=O`, the GI50 was greater than 54.8 µM and the TGI is greater than 66.9 µM.
On to `COc1ccc(F)c(F)c1C(=O)c1cnc(NC2CCN(S(C)(=O)=O)CC2)nc1N`, for which the GI50 was 0.959 µM and 0.45 µM; the TGI was > 23.4 µM and 7.93 µM.
With `Nc1cc(-c2ccc(Cl)cc2)nn1-c1nnc(/C=C/c2ccco2)c(=O)[nH]1`, the GI50 was 6.83 µM and the TGI amounted to 60.1 µM.
In turn, `Cc1c(C)c(CC(=O)N2CC2)c(C)c(C)c1CC(=O)N1CC1` displayed a TGI of 44.2 µM.
On to `O=C1c2ccccc2-c2c1c1c(NCCCO)nc3ccccc3c1n2Cc1ccccc1`, for which the GI50 is 19.3 µM and the TGI was determined as 35.7 µM.
`CCCCCCCCCCCCCCCCCCOCC(COCCOCC[N+]1(CCCCCC(=O)[O-])CCCC1)Oc1ncccn1` (stereo not drawn) showed a TGI of 5.24 µM.
Take `CCOc1ccc(Nc2c3ccccc3nc3ccccc23)cc1`: the GI50 is 0.416 µM and 0.672 µM; the TGI was 5.25 µM and 13.1 µM.
For `CCNCCNc1cc(-c2ccc(C#N)cc2)c(C#N)c2nc3ccccc3n12`, the GI50 was 3.13 µM and the TGI was 14.9 µM.
The like results for `[2H]c1nc(=Nc2cc(NC(=O)C=C)c(N(C)CCN(C)C)cc2OC)[nH]c(-c2cn(C([2H])([2H])[2H])c3ccccc23)c1[2H]` were, in that order, 4.25 µM and 20.7 µM.
As to `COc1cc2nc(-c3ccc(C(F)(F)F)cc3)cc(OCCCN3CCCC3)c2cc1OC`, the GI50 was 1.42 µM and the TGI was 18.5 µM.
The like results for `COc1ccc(C(=O)c2nc3ccccc3n2CC(=O)c2ccc(Cl)cc2)cc1` were, in that order, 4.78 µM and greater than 100 µM.
As to `O=C(NCCN1CCNCC1)c1ccc(Nc2nc3ccccc3c3occc23)cc1`, the GI50 was 10.3 µM and the TGI is 22.4 µM.
With `OCc1ccc(N2CCOCC2)cc1Cl`, the GI50 is greater than 100 µM and the TGI is greater than 100 µM.

The next assay has as its system SK-MEL-28 melanoma. Nature of the assay: NCI-60 cell line screen, 48 h.
Consider `Fc1ccc2nc(-c3cc(-c4ccc5c(c4)OCO5)n[nH]3)[nH]c2c1`, for which the GI50 is 8.61 µM and the TGI was determined as 53.2 µM.
On the same counts, the results for `O=C(c1cccs1)C1NO[N+]([O-])=C1c1cccs1` (stereo not drawn) are 2.52 µM and 6.8 µM.
With `COc1ccc(C2=C(N3CCc4ccccc43)C(=O)NC2=O)cc1`, the GI50 is greater than 25 µM and the TGI was greater than 25 µM.
For `Cc1cc2c(cc1Cl)S/C(=C/C(=O)O)C(Nc1cccc3nsnc13)=NS2(=O)=O`, the GI50 was 8.06 µM and the TGI amounted to 19.4 µM.
With `COc1ccc(F)c(F)c1C(=O)c1cnc(NC2CCN(S(C)(=O)=O)CC2)nc1N`, the GI50 is 1.06 µM and 0.412 µM; the TGI was > 27.2 µM and 4.78 µM.
With `Nc1cc(-c2ccc(Cl)cc2)nn1-c1nnc(/C=C/c2ccco2)c(=O)[nH]1`, the GI50 is 6.42 µM and the TGI came out at 61 µM.
The compound `Cc1c(C)c(CC(=O)N2CC2)c(C)c(C)c1CC(=O)N1CC1` returned a TGI of 37.6 µM.
For `O=C1c2ccccc2-c2c1c1c(NCCCO)nc3ccccc3c1n2Cc1ccccc1`, the GI50 is 20.6 µM and the TGI worked out at 38.1 µM.
`CCCCCCCCCCCCCCCCCCOCC(COCCOCC[N+]1(CCCCCC(=O)[O-])CCCC1)Oc1ncccn1` (stereo not drawn) returned a TGI of 22.2 µM.
`CCOc1ccc(Nc2c3ccccc3nc3ccccc23)cc1`: the GI50 was 0.855 µM and 0.378 µM; the TGI is 6.51 µM and 2.32 µM.
With `CCNCCNc1cc(-c2ccc(C#N)cc2)c(C#N)c2nc3ccccc3n12`, the GI50 is 1.86 µM and the TGI was 3.72 µM.
The like results for `[2H]c1nc(=Nc2cc(NC(=O)C=C)c(N(C)CCN(C)C)cc2OC)[nH]c(-c2cn(C([2H])([2H])[2H])c3ccccc23)c1[2H]` were, in that order, 1.78 µM and 3.33 µM.
Turning to `COc1cc2nc(-c3ccc(C(F)(F)F)cc3)cc(OCCCN3CCCC3)c2cc1OC`, the GI50 is 1.69 µM and the TGI was determined as 5.65 µM.
On to `COc1ccc(C(=O)c2nc3ccccc3n2CC(=O)c2ccc(Cl)cc2)cc1`, for which the GI50 was 3.02 µM and the TGI is greater than 100 µM.
Consider `O=C(NCCN1CCNCC1)c1ccc(Nc2nc3ccccc3c3occc23)cc1`, for which the GI50 was 2.57 µM and the TGI is 8.45 µM.
For the compound `OCc1ccc(N2CCOCC2)cc1Cl`, the GI50 was greater than 100 µM and the TGI is greater than 100 µM.

The subject of a further assay is ACHN renal. Nature of the assay: NCI-60 cell line screen, 48 h.
Consider `Fc1ccc2nc(-c3cc(-c4ccc5c(c4)OCO5)n[nH]3)[nH]c2c1`, for which the GI50 was 2.74 µM and the TGI was greater than 25.4 µM.
On to `O=C(c1cccs1)C1NO[N+]([O-])=C1c1cccs1` (stereo not drawn), for which the GI50 was 1.85 µM and the TGI was determined as 3.56 µM.
Regarding `COc1ccc(C2=C(N3CCc4ccccc43)C(=O)NC2=O)cc1`, the GI50 is greater than 25 µM and the TGI was greater than 25 µM.
As for `Cc1cc2c(cc1Cl)S/C(=C/C(=O)O)C(Nc1cccc3nsnc13)=NS2(=O)=O`, the GI50 is greater than 52.3 µM and the TGI is greater than 64.9 µM.
For the compound `COc1ccc(F)c(F)c1C(=O)c1cnc(NC2CCN(S(C)(=O)=O)CC2)nc1N`, the GI50 was 0.439 µM and 0.272 µM; the TGI is greater than 100 µM.
As for `Nc1cc(-c2ccc(Cl)cc2)nn1-c1nnc(/C=C/c2ccco2)c(=O)[nH]1`, the GI50 is 3.09 µM and the TGI is 17.7 µM.
The compound `Cc1c(C)c(CC(=O)N2CC2)c(C)c(C)c1CC(=O)N1CC1` showed a TGI of 25.7 µM.
On to `O=C1c2ccccc2-c2c1c1c(NCCCO)nc3ccccc3c1n2Cc1ccccc1`, for which the GI50 is 21.4 µM and the TGI stood at 59.4 µM.
`CCCCCCCCCCCCCCCCCCOCC(COCCOCC[N+]1(CCCCCC(=O)[O-])CCCC1)Oc1ncccn1` (stereo not drawn): the TGI was 23.7 µM.
Regarding `CCOc1ccc(Nc2c3ccccc3nc3ccccc23)cc1`, the GI50 was 0.953 µM and 0.636 µM; the TGI is 3.83 µM and 2.15 µM.
With `CCNCCNc1cc(-c2ccc(C#N)cc2)c(C#N)c2nc3ccccc3n12`, the GI50 is 2.34 µM and the TGI came to 5.73 µM.
Regarding `[2H]c1nc(=Nc2cc(NC(=O)C=C)c(N(C)CCN(C)C)cc2OC)[nH]c(-c2cn(C([2H])([2H])[2H])c3ccccc23)c1[2H]`, the GI50 was 0.0836 µM and the TGI worked out at 1.65 µM.
`COc1cc2nc(-c3ccc(C(F)(F)F)cc3)cc(OCCCN3CCCC3)c2cc1OC`: the GI50 was 0.754 µM and the TGI was greater than 34.1 µM.
As to `COc1ccc(C(=O)c2nc3ccccc3n2CC(=O)c2ccc(Cl)cc2)cc1`, the GI50 is 6.4 µM and the TGI is greater than 100 µM.
Regarding `O=C(NCCN1CCNCC1)c1ccc(Nc2nc3ccccc3c3occc23)cc1`, the GI50 was 20.1 µM and the TGI amounted to 36 µM.
Take `OCc1ccc(N2CCOCC2)cc1Cl`: the GI50 was greater than 100 µM and the TGI is greater than 100 µM.

For a further assay, the system named is HOP-92 NSCLC. Nature of the assay: NCI-60 cell line screen, 48 h.
Consider `Fc1ccc2nc(-c3cc(-c4ccc5c(c4)OCO5)n[nH]3)[nH]c2c1`, for which the GI50 is 1.87 µM and the TGI turned out to be 8.79 µM.
In the case of `O=C(c1cccs1)C1NO[N+]([O-])=C1c1cccs1` (stereo not drawn), the GI50 is 1.65 µM and the TGI came out at 3.59 µM.
Take `COc1ccc(C2=C(N3CCc4ccccc43)C(=O)NC2=O)cc1`: the GI50 is 0.642 µM and the TGI turned out to be 19.7 µM.
The like results for `Cc1cc2c(cc1Cl)S/C(=C/C(=O)O)C(Nc1cccc3nsnc13)=NS2(=O)=O` were, in that order, 28.2 µM and 62 µM.
Take `COc1ccc(F)c(F)c1C(=O)c1cnc(NC2CCN(S(C)(=O)=O)CC2)nc1N`: the GI50 was 0.25 µM and 0.43 µM; the TGI was 3.46 µM and 5.53 µM.
For `Nc1cc(-c2ccc(Cl)cc2)nn1-c1nnc(/C=C/c2ccco2)c(=O)[nH]1`, the GI50 is 2.6 µM and the TGI was found to be 16.7 µM.
Turning to `Cc1c(C)c(CC(=O)N2CC2)c(C)c(C)c1CC(=O)N1CC1`, the TGI stood at 44.9 µM.
In the case of `O=C1c2ccccc2-c2c1c1c(NCCCO)nc3ccccc3c1n2Cc1ccccc1`, the GI50 was 12.3 µM and the TGI turned out to be 27.6 µM.
In turn, `CCCCCCCCCCCCCCCCCCOCC(COCCOCC[N+]1(CCCCCC(=O)[O-])CCCC1)Oc1ncccn1` (stereo not drawn) displayed a TGI of 5.93 µM.
In the case of `CCOc1ccc(Nc2c3ccccc3nc3ccccc23)cc1`, the GI50 was 0.299 µM and 1.06 µM; the TGI was 3.16 µM and 9.42 µM.
Take `CCNCCNc1cc(-c2ccc(C#N)cc2)c(C#N)c2nc3ccccc3n12`: the GI50 is 2.21 µM and the TGI came out at 4.5 µM.
On to `[2H]c1nc(=Nc2cc(NC(=O)C=C)c(N(C)CCN(C)C)cc2OC)[nH]c(-c2cn(C([2H])([2H])[2H])c3ccccc23)c1[2H]`, for which the GI50 was 1.04 µM and the TGI worked out at 2.45 µM.
For `COc1cc2nc(-c3ccc(C(F)(F)F)cc3)cc(OCCCN3CCCC3)c2cc1OC`, the GI50 is 0.351 µM and the TGI was determined as 5.68 µM.
On the same counts, the results for `COc1ccc(C(=O)c2nc3ccccc3n2CC(=O)c2ccc(Cl)cc2)cc1` are greater than 100 µM and greater than 100 µM.
Turning to `O=C(NCCN1CCNCC1)c1ccc(Nc2nc3ccccc3c3occc23)cc1`, the GI50 is 1.24 µM and the TGI amounted to 15.8 µM.
Take `OCc1ccc(N2CCOCC2)cc1Cl`: the GI50 was 34.6 µM and the TGI is greater than 100 µM.
